Values after ≈ are worked out from the molar mass of the structure shown.
Tests used:
Plasmodium falciparum [1] = assay: Antimalarial activity against Plasmodium falciparum Dd2 assessed as reduction in parasite growth incubated for 72 hrs by [3H]-hypoxanthine incorporation assay; assay type: functional, organism-based
Plasmodium falciparum [2] = assay: Antimalarial activity against KAF-156 resistant Plasmodium falciparum Dd2 harboring CARL I1139K mutant assessed as reduction in parasite growth incubated for 72 hrs by [3H]-hypoxanthine incorporation assay; assay type: functional, organism-based
Plasmodium falciparum [3] = assay: Antimalarial activity against ELQ-300 resistant Plasmodium falciparum Dd2 harboring Cyt b I22L mutant assessed as reduction in parasite growth incubated for 72 hrs by [3H]-hypoxanthine incorporation assay; assay type: functional, organism-based
Plasmodium falciparum [4] = assay: Antimalarial activity against MMV006833 resistant Plasmodium falciparum 3D7 assessed as reduction in parasite growth incubated for 72 hrs by LDH assay; assay type: functional, organism-based; conditions: 3D7, 72 h
Plasmodium falciparum [5] = assay: Antimalarial activity against MMV006833 resistant Plasmodium falciparum 3D7 harboring START1 N330K mutant assessed as reduction in parasite growth incubated for 72 hrs by LDH assay; assay type: functional, organism-based; conditions: 3D7, 72 h
HepG2 = assay: Cytotoxicity against human HepG2 cells assessed as reduction in cell viability incubated for 48 hrs by Cell Titer-Glo assay; assay type: functional, cell-based; conditions: HepG2, 48 h
Plasmodium falciparum [6] = assay: Antimalarial activity against MMV006833 resistant Plasmodium falciparum 3D7 harboring START1 N309K mutant assessed as reduction in parasite growth incubated for 72 hrs by LDH assay; assay type: functional, organism-based; conditions: 3D7, 72 h
Plasmodium falciparum [7] = assay: Antimalarial activity against asexual blood stage Plasmodium falciparum 3D7 assessed as reduction in parasite growth incubated for 72 hrs by LDH assay; assay type: functional, organism-based; conditions: 3D7, 72 h
Plasmodium berghei = assay: Antimalarial activity against Plasmodium berghei ANKA infected in mouse assessed as reduction of parasitaemia at 30 mg/kg,po bid administrated for 72 hrs and measured after 24 hrs post last dose by Giemsa staining based microscopic analysis relative to control; assay type: functional; parameters: scale not given: the % may be the effect or the level left; conditions: time 96 hrs
[8] = Intrinsic clearance in rat hepatocyte measured per 10^6 cells at 1 uM incubated upto 90 mins by LC-MS/MS analysis; assay type: ADME, cell-based; conditions: rat hepatocytes, read-out: CLH
Plasmodium falciparum [9] = assay: Binding affinity to recombinant Plasmodium falciparum START1 assessed as change in entropy at 10 uM by isothermal titration calorimetry
Plasmodium falciparum [10] = assay: Binding affinity to recombinant Plasmodium falciparum START1 assessed as change in enthalpy at 10 uM by isothermal titration calorimetry
[11] = Kinetic aqueous solubility of the compound in PBS at pH 7.4 incubated for 2 hr under shaking condition by shake flask based UV reader plate analysis; assay type: physicochemical; conditions: read-out: Kinetic_solubility
[12] = Binding affinity to recombinant Plasmodium falciparum START1 assessed as dissociation constant by isothermal titration calorimetry
[13] = Intrinsic clearance in human liver microsomes at 1 uM incubated upto 60 mins in presence of NADPH by LC-MS/MS analysis; assay type: ADME, Microsome; conditions: read-out: CLH
[14] = Lipophilicity, LogD of compound in 1-Octanol and PBS at pH 7.4 at 7.5 uM incubated for 2 hrs shake flask method based LC-MS/MS analysis; assay type: physicochemical; conditions: 1-octanol/PBS
Plasmodium falciparum [15] = assay: Antimalarial activity against DDD-107498 resistant Plasmodium falciparum Dd2 harboring eEF2 Y86N mutant assessed as reduction in parasite growth incubated for 72 hrs by [3H]-hypoxanthine incorporation assay; assay type: functional, organism-based

Row | Structure (SMILES) | EC50 (HepG2) [µM] | EC50 (Plasmodium falciparum [7]) [nM] | other results
1 | CC1(C)c2nc(-c3ccc(F)cc3)c(Nc3ccc(F)cc3)n2CCN1C(=O)CN [GANAPLACIDE] | – | – | EC50 (Plasmodium falciparum [1]): 8 nM; EC50 (Plasmodium falciparum [2]): 1530 nM
2 | COc1cc2[nH]c(C)c(-c3ccc(Oc4ccc(OC(F)(F)F)cc4)cc3)c(=O)c2cc1Cl | – | – | EC50 (Plasmodium falciparum [1]): 21 nM; EC50 (Plasmodium falciparum [3]): 180 nM
3 | CCC(C)[C@H](Nc1ccc(Cl)c(S(=O)(=O)N2CCOCC2)c1)C(=O)Nc1ccc(F)c(Cl)c1 (stereo partly specified) | 10.9 | 27 | EC50 (Plasmodium falciparum [4]): 15 nM; EC50 (Plasmodium falciparum [5]): 1600 nM; EC50 (Plasmodium falciparum [6]): 2.1 µM
4 | N#Cc1cccc(NC(=O)CNc2ccc(Cl)c(S(=O)(=O)N3CCOCC3)c2)c1 | > 40 | 1500 | –
5 | CN1CCC(NS(=O)(=O)c2cc(NCC(=O)Nc3ccc(F)c(Cl)c3)ccc2Cl)CC1 | > 40 | > 10000 | –
6 | Cc1ccc(NCC(=O)Nc2cccc(C(F)(F)F)c2)cc1S(=O)(=O)N1CCOCC1 | > 40 | 3800 | –
7 | C[C@@H]1CC[C@H]2[C@@H](C)C(=O)O[C@@H]3O[C@@]4(C)CC[C@@H]1[C@]32OO4 [ARTEMISININ] | – | – | Activity (Plasmodium berghei): >98%
8 | O=C(CNc1ccc(Cl)c(S(=O)(=O)N2CCOCC2)c1)Nc1cccc(Cl)n1 | > 40 | 8900 | –
9 | Cc1cc(Cl)c(S(=O)(=O)N2CCOCC2)cc1NCC(=O)NC1CCCCC1 | > 40 | 1000 | –
10 | Cc1ccc(NCC(=O)Nc2ccc(F)c(Cl)c2)cc1S(=O)(=O)N1CCOCC1 | – | 270 | –
11 | O=C(CNc1ccc(Cl)c(S(=O)(=O)N2CCOCC2)c1)Nc1cncc(Cl)c1 | > 40 | 410 | –
12 | CC1CCN(S(=O)(=O)c2cc(NCC(=O)Nc3ccc(F)c(Cl)c3)ccc2Cl)CC1 | 26.8 | 260 | –
13 | O=C(CNc1ccc(Cl)c(S(=O)(=O)N2CCOCC2)c1)Nc1cccc(Cl)c1 | > 40 | 280 | –
14 | COC1CCN(S(=O)(=O)c2cc(NCC(=O)Nc3ccc(F)c(Cl)c3)ccc2Cl)CC1 | > 40 | 1500 | –
15 | Cc1ccc(NCC(=O)Nc2cccc(Cl)c2)cc1S(=O)(=O)N1CCOCC1 | > 40 | 360 | –
16 | CC(=O)N1CCN(S(=O)(=O)c2cc(NCC(=O)Nc3ccc(F)c(Cl)c3)ccc2Cl)CC1 | > 40 | 9100 | –
17 | CN(C)C1CCN(S(=O)(=O)c2cc(NCC(=O)Nc3ccc(F)c(Cl)c3)ccc2Cl)CC1 | > 40 | > 10000 | –
18 | O=C(Nc1ccc(F)c(Cl)c1)C(Nc1ccc(Cl)c(S(=O)(=O)N2CCOCC2)c1)c1ccccc1 (racemic) | 19.3 | 6300 | –
19 | C[C@H](Nc1ccc(Cl)c(S(=O)(=O)N2CCOCC2)c1)C(=O)Nc1cncc(Cl)c1 | > 40 | 54 | hepatocyte CLint at 1 µM [8]: 50 µL/min/1e6 cells; -TdeltaS (Plasmodium falciparum [9]): 4.8 kcal/mol; deltaH (Plasmodium falciparum [10]): -14.4 kcal/mol; solubility kinetic at 2 h [11]: 77 µM (≈ 35.4 µg/mL); EC50 (Plasmodium falciparum [4]): 16 nM; EC50 (Plasmodium falciparum [5]): 2600 nM; Kd [12]: 119 nM; microsomal CLint at 1 µM [13]: > 462 µL/min/mg; EC50 (Plasmodium falciparum [6]): 7.8 µM; logD at 2 h, 7.5 µM [14]: 3.1
20 | O=C(NCCN1CCCC1)c1cc(-c2ccc(CN3CCOCC3)cc2)nc2ccc(F)cc12 [CABAMIQUINE] | – | – | EC50 (Plasmodium falciparum [15]): 850 nM
21 | Cc1ccc(NCC(=O)Nc2ccccc2)cc1S(=O)(=O)N1CCOCC1 | > 40 | 2100 | –
22 | O=C(COc1ccc(Cl)c(S(=O)(=O)N2CCOCC2)c1)NC1CCCCC1 | > 40 | 4300 | –
23 | CC(C)CC(Nc1ccc(Cl)c(S(=O)(=O)N2CCOCC2)c1)C(=O)Nc1ccc(F)c(Cl)c1 (racemic) | 9.5 | 850 | –

From ChEMBL document CHEMBL5500343, “Activity refinement of aryl amino acetamides that target the P. falciparum STAR-related lipid transfer 1 protein” (Eur J Med Chem, 2024)
